From patent US10077269B2, “Imidazopyridazine compounds” (Pfizer Inc., priority 2014, dated 2018) come the findings set out here.

The target in this experiment is Human PDE4D FL (Homo sapiens (Human), UniProt Q08499). Description: PDE4D3 Scintillation Proximity Assay (SPA), inhibition of enzyme activity. It is filed as biochemical. To be noted: geometric mean of 2-9 determinations unless otherwise indicated; 1 μM cAMP, 30 min at 25° C. Background: Scintillation proximity formats need no separation of bound from free tracer.
Human PDE4D FL, sequence (Q08499 186-808): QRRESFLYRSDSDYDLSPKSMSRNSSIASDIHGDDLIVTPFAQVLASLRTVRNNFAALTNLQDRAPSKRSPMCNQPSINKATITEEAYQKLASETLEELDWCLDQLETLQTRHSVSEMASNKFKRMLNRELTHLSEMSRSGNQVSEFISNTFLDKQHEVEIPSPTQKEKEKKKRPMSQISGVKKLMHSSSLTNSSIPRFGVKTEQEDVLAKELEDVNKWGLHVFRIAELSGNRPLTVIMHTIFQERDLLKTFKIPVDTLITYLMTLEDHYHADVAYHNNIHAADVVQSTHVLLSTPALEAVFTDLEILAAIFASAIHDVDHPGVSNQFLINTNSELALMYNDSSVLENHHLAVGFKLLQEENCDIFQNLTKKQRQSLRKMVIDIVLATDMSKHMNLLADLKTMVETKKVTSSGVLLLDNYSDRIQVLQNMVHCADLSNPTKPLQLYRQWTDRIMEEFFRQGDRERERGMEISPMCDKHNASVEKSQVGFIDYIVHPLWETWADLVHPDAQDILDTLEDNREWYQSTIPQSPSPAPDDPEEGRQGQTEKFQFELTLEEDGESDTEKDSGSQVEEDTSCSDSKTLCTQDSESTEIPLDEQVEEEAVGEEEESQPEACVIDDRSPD

Consider `COC1CN(C(=O)c2nc3cccnn3c2-c2ccc(Cl)cc2)C1` [Example 31, [3-(4-chlorophenyl)imidazo[1,2-b]pyridazin-2-yl](3-methoxyazetidin-1-yl)methanone], for which the IC50 (usually the concentration that gives 50% inhibition) was over 26.2 µM.

Take `O=C(NC1CC1)c1nc2cccnn2c1-c1ccnc(C(F)(F)F)c1` [Example 42, N-cyclopropyl-3-[2-(trifluoromethyl)pyridin-4-yl]imidazo[1,2-b]pyridazine-2-carboxamide]: the IC50 is over 12.2 µM.
